Experimental data published in patent US20230331737A1, “MTORC1 MODULATORS AND USES THEREOF” (Aeovian Pharmaceuticals, Inc., priority 2020, published 2023).

Assays:
[1] = target: FKBP12 (Homo sapiens, UniProt P62942); test: SPR assay to determine binding affinity to FKBP12 (direct binding); conditions: immobilized biotinylated avi-FKBP12, single-cycle kinetics
Description: SPR Assay to Determine Binding Affinity to FKBP12.
Biotinylated avi-FKBP12 was immobilized on a streptavidin chip (Cytiva Series S SA) using a Biacore 8K or 8k+ (Cytiva). […] Test compounds described in Table 11 were diluted in DMSO to 100× working concentration. Each test compound was 100-fold diluted in 50 mM HEPES pH 7.5, 150 mM NaCl, 2 mM MgCl2, 1 mM DTT, 0.05% Tween-20 and a serial dilution prepared (9 concentrations, 3-fold dilutions, 0.08-500 nM). […] The compound dilutions were then injected at 100 uL/min for 120 seconds contact time in sequence with increasing concentrations. Dissociation was monitored for 3600 seconds. 50 mM HEPES pH 7.5, 150 mM NaCl, 2 mM MgCl2, 1 mM DTT, 0.05% Tween-20, 1% DMSO was used as running buffer. The single-cycle kinetics data were fit to a 1:1 binding model to measure the association rate ka (1/Ms), the dissociation rate kd (1/s) and the affinity Kd (M).

[2] = target: T1, mTORC1 (Homo sapiens, UniProt P42345+P62942); test: mTORC1 inhibition in PC-3 cells, AlphaLISA of p70S6K pT389 levels; type: cell-based; conditions: mTORC1 as measured by inhibition of p70S6K pT389 levels, read-out: mTROC1 IC50
T1 construct: endogenous in cells; host or cells: PC-3 cells
Description: mTORC1 inhibition was determined via analysis of phosphorylation levels of Phospho-p70 S6 kinase (p70S6K pT389) and Phospho-S6 Ribosomal Protein (pRPS6 pS240/pS244) with the corresponding AlphaLISA kits (PerkinElmer Alpha SF Ultra™ Multiplex phospho (Thr389)/total p70 S6K Assay Kit (Eu/Tb) and AlphaLISA SF Ultra™ p-Ribosomal Protein S6 (Ser240/244) Assay Kit).
%−activity=100*((Sample−Low control)/(High control−Low control))

[3] = target: FKBP12 ternary complex with FRB (Homo sapiens, UniProt P42345+P62942); test: SPR assay to characterize ternary complex formation with FKBP12 (FRB injected over compound-saturated FKBP12); type: binding; conditions: FRB dilutions with 100 nM test compound over immobilized FKBP12
Description: Biotinylated avi-FKBP12 was immobilized on a streptavidin chip (Cytiva Series S SA) using a Biacore 8K or 8k+ (Cytiva). To achieve an immobilization level of 100 RU, 0.3 μg/ml biotinylated avi-FKBP12 were injected for 80 sec at a flow rate of 10 μl/min. Serial dilution of FRB was prepared (12 concentrations, 3-fold dilutions, 0.00011-20 μM) and supplemented with 100 nM of a test compound. A-B-A injection mode was used to ensure saturation immobilized FKBP12 with respective test compound. 100 nM solution of the respective test compound was injected before FRB injection for 120 sec and during dissociation for 420 sec. The FRB dilutions were then injected 120 seconds contact time with increasing concentrations. Rapamycin was used as reference sample. 50 mM HEPES pH 7.5, 150 mM NaCl, 2 mM MgCl2, 1 mM DTT, 0.05% Tween-20, 1% DMSO was used as running buffer at a flow rate of 30 μl/min. The multi-cycle kinetics data were fit to a 1:1 binding model to measure the association rate ka (1/Ms), the dissociation rate kd (1/s) and the affinity Kd (M). In case of fast association and dissociation, steady state affinity analysis following the law of mass action was used to determine the affinity Kd (M).

FKBP12, sequence (P62942 whole entry, species assumed): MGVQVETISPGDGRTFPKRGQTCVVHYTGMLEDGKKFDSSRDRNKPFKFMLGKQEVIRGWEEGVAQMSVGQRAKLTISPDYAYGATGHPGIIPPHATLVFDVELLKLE

CO[C@@H]1C[C@H](C[C@@H](C)[C@@H]2CC(=O)[C@H](C)/C=C(\C)[C@@H](O)[C@@H](OC)C(=O)[C@H](C)C[C@H](C)/C=C/C=C/C=C(\C)[C@H](OCCCCO)C[C@@H]3CC[C@@H](C)[C@@](O)(O3)C(=O)C(=O)N3CCCC[C@H]3C(=O)O2)CC[C@H]1OCCCN1CCOCC1 [Compound 27, (1R,9S,12S,15R,16E,18R,19R,21R,23S,24E,26E,28E,30R,32S,35R)-1,18-dihydroxy-30-(4-hydroxybutoxy)-19-methoxy-12-[(1R)-2-[(1S,3R,4R)-3-methoxy-4-(3-morpholinopropoxy)cyclohexyl]-1-methyl-ethyl]-15,17,21,23,29,35-hexamethyl-11,36-dioxa-4-azatricyclo[30.3.1.04,9]hexatriaconta-16,24,26,28-tetraene-2,3,10,14,20-pentone]
Kd [1]: < 0.3 nM
IC50 [2]: 0.8 to 1.5 nM
Kd [3]: 500 to 1100 nM

COCCO[C@@H]1C[C@@H]2CC[C@@H](C)[C@@](O)(O2)C(=O)C(=O)N2CCCC[C@H]2C(=O)O[C@H]([C@H](C)C[C@@H]2CC[C@@H](O)[C@H](OC)C2)CC(=O)[C@H](C)/C=C(\C)[C@@H](O)[C@@H](OC)C(=O)[C@H](C)C[C@H](C)/C=C/C=C/C=C/1C [Compound 130, (1R,9S,12S,15R,16E,18R,19R,21R,23S,24E,26E,28E,30R,32S,35R)-1,18-dihydroxy-12-[(1R)-2-[(1S,3R,4R)-4-hydroxy-3-methoxy-cyclohexyl]-1-methyl-ethyl]-19-methoxy-30-(2-methoxyethoxy)-15,17,21,23,29,35-hexamethyl-11,36-dioxa-4-azatricyclo[30.3.1.04,9]hexatriaconta-16,24,26,28-tetraene-2,3,10,14,20-pentone]
Kd [1]: 0.3 to 1 nM
IC50 [2]: 0.8 to 1.5 nM
Kd [3]: 500 to 1100 nM

COCCO[C@H]1C[C@@H]2CC[C@@H](C)[C@@](O)(O2)C(=O)C(=O)N2CCCCC2C(=O)O[C@H]([C@H](C)C[C@@H]2CC[C@@H](OCCCN3CCN(C)CC3)[C@H](OC)C2)CC(=O)[C@H](C)/C=C(\C)[C@@H](O)[C@@H](OC)C(=O)[C@H](C)C[C@H](C)/C=C/C=C/C=C/1C (relative stereo) [Compound 431, (1R,9S,12S,15R,16E,18R,19R,21R,23S,24E,26E,28E,30S*,32S,35R)-1,18-dihydroxy-19-methoxy-30-(2-methoxyethoxy)-12-[(1R)-2-[(1S,3R,4R)-3-methoxy-4-[3-(4-methylpiperazin-1-yl)propoxy]cyclohexyl]-1-methyl-ethyl]-15,17,21,23,29,35-hexamethyl-11,36-dioxa-4-azatricyclo[30.3.1.0^4,9]hexatriaconta-16,24,26,28-tetraene-2,3,10,14,20-pentone]
Kd [1]: 0.3 to 1 nM
IC50 [2]: < 0.8 nM
Kd [3]: < 500 nM

COCCO[C@H]1C[C@@H]2CC[C@@H](C)[C@@](O)(O2)C(=O)C(=O)N2CCCC[C@H]2C(=O)O[C@H]([C@H](C)C[C@@H]2CC[C@@H](OCCCO)[C@H](OC)C2)CC(=O)[C@H](C)/C=C(\C)[C@@H](O)[C@@H](OC)C(=O)[C@H](C)C[C@H](C)/C=C/C=C/C=C/1C [Compound 427, (1R,9S,12S,15R,16E,18R,19R,21R,23S,24E,26E,28E,30S,32S,35R)-1,18-dihydroxy-12-[(1R)-2-[(1S,3R,4R)-4-(3-hydroxypropoxy)-3-methoxy-cyclohexyl]-1-methyl-ethyl]-19-methoxy-30-(2-methoxyethoxy)-15,17,21,23,29,35-hexamethyl-11,36-dioxa-4-azatricyclo[30.3.1.04,9]hexatriaconta-16,24,26,28-tetraene-2,3,10,14,20-pentone]
Kd [1]: 0.3 to 1 nM
IC50 [2]: < 0.8 nM
Kd [3]: < 500 nM

CO[C@@H]1C[C@H](C[C@@H](C)[C@@H]2CC(=O)[C@H](C)/C=C(\C)[C@@H](O)[C@@H](OC)C(=O)[C@H](C)C[C@H](C)/C=C/C=C/C=C(\C)[C@@H](OCCO)C[C@@H]3CC[C@@H](C)[C@@](O)(O3)C(=O)C(=O)N3CCCC[C@H]3C(=O)O2)CC[C@H]1OCCCN1CCOC[C@H]1C [Compound 404, (1R,9S,12S,15R,16E,18R,19R,21R,23S,24E,26E,28E,30S,32S,35R)-1,18-dihydroxy-30-(2-hydroxyethoxy)-19-methoxy-12-[(1R)-2-[(1S,3R,4R)-3-methoxy-4-[3-[(3R)-3-methylmorpholin-4-yl]propoxy]cyclohexyl]-1-methyl-ethyl]-15,17,21,23,29,35-hexamethyl-11,36-dioxa-4-azatricyclo[30.3.1.04,9]hexatriaconta-16,24,26,28-tetraene-2,3,10,14,20-pentone]
Kd [1]: < 0.3 nM
IC50 [2]: < 0.8 nM

CO[C@@H]1C[C@H](C[C@@H](C)[C@@H]2CC(=O)[C@H](C)/C=C(\C)[C@@H](O)[C@@H](OC)C(=O)[C@H](C)C[C@H](C)/C=C/C=C/C=C(\C)[C@H](OC3CC3)C[C@@H]3CC[C@@H](C)[C@@](O)(O3)C(=O)C(=O)N3CCCC[C@H]3C(=O)O2)CC[C@H]1OCCO [Compound 128, (1R,9S,12S,15R,16E,18R,19R,21R,23S,24E,26E,28E,30R,32S,35R)-30-(cyclopropoxy)-1,18-dihydroxy-12-[(1R)-2-[(1S,3R,4R)-4-(2-hydroxyethoxy)-3-methoxy-cyclohexyl]-1-methyl-ethyl]-19-methoxy-15,17,21,23,29,35-hexamethyl-11,36-dioxa-4-azatricyclo[30.3.1.04,9]hexatriaconta-16,24,26,28-tetraene-2,3,10,14,20-pentone]
Kd [1]: > 1 nM
IC50 [2]: 0.8 to 1.5 nM
Kd [3]: < 500 nM

CO[C@@H]1C[C@H](C[C@@H](C)[C@@H]2CC(=O)[C@H](C)/C=C(\C)[C@@H](O)[C@@H](OC)C(=O)[C@H](C)C[C@H](C)/C=C/C=C/C=C(\C)[C@@H](OC3CC3)C[C@@H]3CC[C@@H](C)[C@@](O)(O3)C(=O)C(=O)N3CCCC[C@H]3C(=O)O2)CC[C@H]1OCCO [Compound 527, (1R,9S,12S,15R,16E,18R,19R,21R,23S,24E,26E,28E,30S,32S,35R)-30-(cyclopropoxy)-1,18-dihydroxy-12-[(1R)-2-[(1S,3R,4R)-4-(2-hydroxyethoxy)-3-methoxy-cyclohexyl]-1-methyl-ethyl]-19-methoxy-15,17,21,23,29,35-hexamethyl-11,36-dioxa-4-azatricyclo[30.3.1.04,9]hexatriaconta-16,24,26,28-tetraene-2,3,10,14,20-pentone]
Kd [1]: 0.3 to 1 nM
IC50 [2]: < 0.8 nM
Kd [3]: < 500 nM

CO[C@@H]1C[C@H](C[C@@H](C)[C@@H]2CC(=O)[C@H](C)/C=C(\C)[C@@H](O)[C@@H](OC)C(=O)[C@H](C)C[C@H](C)/C=C/C=C/C=C(\C)[C@@H](OC3COC3)C[C@@H]3CC[C@@H](C)[C@@](O)(O3)C(=O)C(=O)N3CCCC[C@H]3C(=O)O2)CC[C@H]1O [Compound 523, (1R,9S,12S,15R,16E,18R,19R,21R,23S,24E,26E,28E,30S,32S,35R)-1,18-dihydroxy-12-[(2R)-1-[(1S,3R,4R)-4-hydroxy-3-methoxycyclohexyl]propan-2-yl]-19-methoxy-15,17,21,23,29,35-hexamethyl-30-(oxetan-3-yloxy)-11,36-dioxa-4-azatricyclo[30.3.1.04,9]hexatriaconta-16,24,26,28-tetraene-2,3,10,14,20-pentone]
Kd [1]: < 0.3 nM
IC50 [2]: < 0.8 nM
Kd [3]: > 1100 nM

CO[C@@H]1C[C@H](C[C@@H](C)[C@@H]2CC(=O)[C@H](C)/C=C(\C)[C@@H](O)[C@@H](OC)C(=O)[C@H](C)C[C@H](C)/C=C/C=C/C=C(\C)[C@@H](OCCO)C[C@@H]3CC[C@@H](C)[C@@](O)(O3)C(=O)C(=O)N3CCCC[C@H]3C(=O)O2)CC[C@H]1OCCCN1CCOC[C@@H]1C [Compound 401, (1R,9S,12S,15R,16E,18R,19R,21R,23S,24E,26E,28E,30S,32S,35R)-1,18-dihydroxy-30-(2-hydroxyethoxy)-19-methoxy-12-[(1R)-2-[(1S,3R,4R)-3-methoxy-4-[3-[(3S)-3-methylmorpholin-4-yl]propoxy]cyclohexyl]-1-methyl-ethyl]-15,17,21,23,29,35-hexamethyl-11,36-dioxa-4-azatricyclo[30.3.1.04,9]hexatriaconta-16,24,26,28-tetraene-2,3,10,14,20-pentone]
Kd [3]: < 500 nM
